Measurements published in patent US6551774B1, “Diagnostic methods for conditions associated with elevated cellular levels of telomerase activity” (Board of Regents, The University of Texas System, priority 1992, dated 2003).
Counter-ions that a name gives are not always drawn. Like-named read-outs stand apart in the source and are kept apart here.

Legend:
Tetrahymena cells [1] = experiment: Telomere length in vegetatively grown Tetrahymena by Southern blot; type: cell-based, Tetrahymena thermophila; conditions: 100 μM and 1 mM in Isobroth, after 5 days (16 generations)
Experimental: For analysis of macronuclear DNA from cultures containing the nucleoside analog AZT (Sigma), or controls lacking analog, at various timepoints during vegetative divisions, cells from stationary stock cultures were inoculated into 25 ml thymine-deficient Iso-sensitest broth (‘Isobroth’, Oxoid USA) in 250 ml flasks. Cultures were incubated at 30° C. with shaking (100 rpm) for 48 hours. Cells were counted and plated at 1000 cells/1.5 ml in 24-well plates (Falcon) and grown at 30° C., without shaking, for 48 hours. 5 μl of these log phase cells were used to inoculate 1 ml cultures (Isobroth) containing varied concentrations of nucleoside analog. Thereafter, every 2-4 days cells were transferred, either 5 μl per well, or 1-3 μl using a multi-pronged replicator into fresh 1 ml broth containing AZT. Remaining cells were pelleted and stored at −80° C. until processed for DNA analysis.
For analysis of macronuclear DNA from vegetative cultures containing the nucleoside analogs Ara-G (Calbiochem), ddG (Calbiochem), or ddI (Calbiochem), or controls lacking analog, stock cultures were grown overnight in 2% PPYS as described. Cells were counted and plated at 100 cells/2 ml in 2% PPYS containing varied amounts of analog, 1% DMSO (Fisher) (as a control for ddG and Ara-G), or 2% PPYS alone. Cells were replica plated into fresh medium every 2-6 days, and remaining cells were pelleted and stored at −80° C. until processed for DNA analysis.
For analysis of macronuclear DNA from vegetative cultures containing d4T (Sigma) or control lacking the analog, stock cultures (SB210 VI) were grown overnight in Isobroth as described. Cells were then counted and duplicate cultures inoculated at 500 cells/5 ml Isobroth in 50 ml conical tubes, and grown at 30° C., shaking 80 rpm. 500-2000 cells were transfered to fresh broth every 2-4 days, and the remainder pelleted and stored at −80° C. until processed for DNA analysis.
Restriction digests, agarose gel electrophoresis, transfer of DNA to Nytran filters (Schleicher and Schuell), and hybridization with ^32P-nick-trapplated or random-primed probes were carried out using standard procedures (Maniatis et.al. 1989). Telomere length was analyzed as described previously for Tetrahymena [Larson 50 Cell, 477, 1987].
Telomere lengths in cells grown in the presence of the different analogs were monitored by Southern blot analysis of DNA samples extracted at a series of time points during the subculturings. The telomeres of cells grown vegetatively in 1 and 5 mM AZT in 2% PPYS medium were reproducibly shortened by up to an average of 170 base pairs compared with the control cultures grown in 2% PPYS in the absence of the drug (FIG. 21A and B). This shortening of telomeres occured in a concentration-dependent manner (FIG. 21B), with at least 50% of the maximal shortening effect occurring by 10 μM AZT, the lowest concentration tested.

[2] = target: T1, Tetrahymena thermophila telomerase (Tetrahymena thermophila, UniProt O77448); experiment: Tetrahymena telomerase in vitro assay (incorporation of 32P label, gel of products); type: biochemical; conditions: for Km: from competition of unlabeled with 32P-labeled nucleotide; for effect on the telomerase reaction: dideoxynucleoside triphosphates; for position on the telomerase RNA template of strongest chain termination: template residues numbered 1 to 9 (5′ to 3′)
T1 construct: A standard assay contained 50% by volume of heparin-agarose purified telomerase; endogenous in cells; host or cells: Tetrahymena thermophila cell extracts, heparin-agarose purified
T1 sequence (O77448 1-1117): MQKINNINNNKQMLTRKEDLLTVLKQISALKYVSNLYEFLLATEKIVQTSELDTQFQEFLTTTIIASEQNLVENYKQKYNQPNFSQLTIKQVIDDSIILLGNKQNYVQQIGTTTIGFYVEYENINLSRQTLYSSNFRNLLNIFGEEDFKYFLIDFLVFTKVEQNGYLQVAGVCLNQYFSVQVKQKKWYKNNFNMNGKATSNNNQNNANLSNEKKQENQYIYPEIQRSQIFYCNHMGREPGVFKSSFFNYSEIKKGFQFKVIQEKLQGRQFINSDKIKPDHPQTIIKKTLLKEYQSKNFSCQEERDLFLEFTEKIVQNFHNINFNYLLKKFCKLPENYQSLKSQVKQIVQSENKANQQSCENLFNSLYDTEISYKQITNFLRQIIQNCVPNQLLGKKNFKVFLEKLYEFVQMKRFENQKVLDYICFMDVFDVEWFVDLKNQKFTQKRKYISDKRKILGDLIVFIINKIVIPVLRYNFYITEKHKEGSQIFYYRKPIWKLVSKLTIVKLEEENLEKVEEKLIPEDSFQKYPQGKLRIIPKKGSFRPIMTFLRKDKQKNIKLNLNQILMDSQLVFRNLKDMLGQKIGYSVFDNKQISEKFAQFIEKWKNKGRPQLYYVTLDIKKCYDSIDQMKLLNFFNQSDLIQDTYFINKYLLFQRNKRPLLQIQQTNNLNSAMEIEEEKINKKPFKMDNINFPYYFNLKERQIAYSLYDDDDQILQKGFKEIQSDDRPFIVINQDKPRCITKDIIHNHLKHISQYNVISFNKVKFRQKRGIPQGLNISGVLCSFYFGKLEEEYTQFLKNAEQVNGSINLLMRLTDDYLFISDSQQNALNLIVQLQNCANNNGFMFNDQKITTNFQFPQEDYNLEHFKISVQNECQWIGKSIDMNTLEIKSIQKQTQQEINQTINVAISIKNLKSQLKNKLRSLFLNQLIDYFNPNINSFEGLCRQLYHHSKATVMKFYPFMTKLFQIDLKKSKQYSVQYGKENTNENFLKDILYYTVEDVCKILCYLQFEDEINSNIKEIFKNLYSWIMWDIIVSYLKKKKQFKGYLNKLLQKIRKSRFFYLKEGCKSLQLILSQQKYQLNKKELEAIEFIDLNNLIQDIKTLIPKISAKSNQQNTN
T1 sequence (W7X6T2 1-542 partner): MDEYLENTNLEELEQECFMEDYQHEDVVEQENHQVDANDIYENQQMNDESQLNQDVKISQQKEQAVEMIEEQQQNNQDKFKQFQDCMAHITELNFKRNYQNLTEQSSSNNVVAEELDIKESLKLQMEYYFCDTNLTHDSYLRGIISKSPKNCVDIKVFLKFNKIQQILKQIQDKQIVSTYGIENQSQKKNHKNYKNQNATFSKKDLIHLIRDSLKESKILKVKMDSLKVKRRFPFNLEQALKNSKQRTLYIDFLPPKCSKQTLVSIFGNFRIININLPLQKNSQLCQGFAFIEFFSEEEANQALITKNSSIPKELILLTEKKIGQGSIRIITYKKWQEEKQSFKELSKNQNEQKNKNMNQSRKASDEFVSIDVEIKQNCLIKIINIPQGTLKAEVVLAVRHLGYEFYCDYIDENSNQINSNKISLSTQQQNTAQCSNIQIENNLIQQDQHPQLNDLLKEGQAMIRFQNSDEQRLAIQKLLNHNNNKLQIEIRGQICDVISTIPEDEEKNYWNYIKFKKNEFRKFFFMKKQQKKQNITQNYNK
Experimental: AZT-triphosphate was obtained from Burroughs Wellcome, N.C. Ara-G-triphosphate was purchased from Calbiochem and ddNTPs from Sigma. Reaction mixes were kept on ice until ready for use, and then mixed into tubes containing analog for incubation at 30° C. Reaction times were thirty minutes. […] Identical reactions were run without primers as controls. […] Incorporation of ^32P label from either ^32P-TTP or ^32P-dGTP was measured to monitor the reaction rate.
The standard telomerase assay used in this example consists of incorporation of dGTP and TTP substrates, one triphosphate ^32P-labeled, into synthesized DNA in the reaction shown in FIG. 18A. […] Incorporation of ^32P label from either ^32P-TTP or ^32P-dGTP was measured to monitor the reaction rate, and the distributions of elongation products were analyzed by denaturing polyacrylamide gel electrophoresis.

Tetrahymena cells [3] = experiment: Progeny formation (cycloheximide resistance) of Tetrahymena conjugated in the presence of analog; type: cell-based, Tetrahymena thermophila; conditions: for % CHX-R: 0.017 mM analog (head prints MM)
Experimental: For analysis of cycloheximide (CHX) sensitivity of cells conjugated in the presence of analog, 50 ml cultures of each cell type were grown overnight in 2% PPYS, starved in Dryl's for 18 hours, mated (5×10^5 cells/ml) for 6 hours, then analog was added. Cells were allowed to complete mating in the presence of the analog. Twenty-four hours after mixing, cells were diluted in Dryl's solution, counted and plated at 1 cell per well of 96-well plates in 1% PPYS without analog. Cells were grown for 4 days in a humid chamber at 30° C., without shaking. Cells were then replica plated into 1% PPYS plus 15 μg/ml cycloheximide, allowed to grow for four days before scoring, and percent of CHX-resistant wells was calculated. Because generation of progeny expressing the cycloheximide marker requires successful production of a new macronucleus, cells whose macronuclear development was disrupted by the analog are killed in CHX.
This process involves de novo formation of new macronuclear telomeres in the progeny cells. Macronuclear development in ciliated protozoans such as Tetrahymena involves developmentally programmed, site-specific fragmentation of germline chromosomes into linear subchromosomes, whose ends are healed by de novo addition of telomeres. […] Because of the immediate requirement for telomere addition to fragmented DNA, it is possible that the latter process might be more sensitive to telomerase inhibition than telomere maintenance during vegetative growth. To test whether nucleoside analogs cause inhibition of macronuclear development due to a disruption of telomere formation, we mated two strains of Tetrahymena which are sensitive to cycloheximide, but whose progeny after mating are resistant to cycloheximide. Synchronized mated cells were treated with AZT at concentrations ranging from 10 μM to 5 mM for a period beginning just prior to when macronuclear development begins and continuing during macronuclear development (the period 6-24 hours after mating was initiated). […] In attempts to maximize the effect of AZT, cells were either refed at 6 hrs with 2% PPYS or Isobroth, or starved until 24 hrs (the duration of the AZT treatment). Such starvation arrests macronuclear development at an intermediate stage. When refed, macronuclear development would then be forced to proceed in the presence of the AZT. Control, unmated parental cells were also plated and exposed to drug.

For `Cc1cn([C@H]2C=C[C@@H](CO)O2)c(=O)[nH]c1=O` [d4T, 3′ deoxy-2′,3′-didehydrothymidine], the telomere length (Tetrahymena cells [1]) was “produced shortened telomeres”.

For `Nc1nc2c(ncn2[C@H]2CC[C@@H](COP(=O)(O)OP(=O)(O)OP(=O)(O)O)O2)c(=O)[nH]1` [ddGTP], the IC50 [2] was under 0.1 µM.

`Cc1cn([C@H]2C[C@H](O)[C@@H](COP(=O)(O)OP(=O)(O)OP(=O)(O)O)O2)c(=O)[nH]c1=O` [TTP] gave a Km [2] of about 5 µM.

With `Nc1ccn([C@H]2CC[C@@H](COP(=O)(O)OP(=O)(O)OP(=O)(O)O)O2)c(=O)n1` [ddCTP] the “effect on the telomerase reaction” value [2] was “no significant effects”.

`Cc1cn([C@H]2CC[C@@H](COP(=O)(O)OP(=O)(O)OP(=O)(O)O)O2)c(=O)[nH]c1=O` [ddTTP] was tested, and the IC50 [2] was 5 µM.

In the case of `[H]/N=C(/N)N[C@H]1[C@H](O)[C@@H](O)[C@H](O[C@@H]2O[C@@H](C)[C@](O)(C=O)[C@H]2O[C@@H]2O[C@@H](CO)[C@H](O)[C@@H](O)[C@@H]2NC)[C@@H](N/C(N)=N\[H])[C@@H]1O` [Streptomycin sulfate, streptomycin sulfate], the “effect on amount and average length of elongation products” value ([2]; 40 mM, 40 mM sodium sulfate control little decrease) is reported as “dramatically reduced”.

In the case of `Nc1nc2c(ncn2COCCO)c(=O)[nH]1` [Acyclo-G, Acycloguanosine], the “% CHX-R” value (Tetrahymena cells [3]; first block for the analog) is reported as 75%, the “% CHX-R” value (Tetrahymena cells [3]; second block for the analog) is reported as 69% and the “# CHX-R” value (Tetrahymena cells [3]; 0.017 mM analog, first block for the analog, number of cycloheximide-resistant wells) is reported as 80. The “irreversible disruption of macronuclear development” value (Tetrahymena cells [3]; analog present during conjugation) was “little or no irreversible disruption”.

In the case of `Nc1ncnc2c1ncn2[C@H]1CC[C@@H](COP(=O)(O)OP(=O)(O)OP(=O)(O)O)O1` [ddATP], the “effect on the telomerase reaction” value [2] is reported as “no significant effects”.

In the case of `CO[C@H]1/C=C/O[C@@]2(C)Oc3c(C)c(O)c4c(O)c(c(/C=N/N5CCN(C)CC5)c(O)c4c3C2=O)NC(=O)/C(C)=C\C=C\[C@H](C)[C@H](O)[C@@H](C)[C@@H](O)[C@@H](C)[C@H](OC(C)=O)[C@@H]1C` [rifampin], the “effect on quantitative incorporation of label and banding pattern” value ([2]; concentrations up to 100 μg/ml) is reported as “did not affect the quantitative incorporation of label or change the banding pattern”.

Compound `Nc1nc2c(ncn2[C@H]2C[C@H](O)[C@@H](COP(=O)(O)OP(=O)(O)OP(=O)(O)O)O2)c(=O)[nH]1` [dGTP] has a Km [2] of 1 to 2 µM.

In the case of `O=c1[nH]cnc2c1ncn2[C@H]1CC[C@@H](COP(=O)(O)OP(=O)(O)OP(=O)(O)O)O1` [ddITP, dideoxyinosine triphosphate], the IC50 [2] is reported as 3 µM and the “position on the telomerase RNA template of strongest chain termination” value [2] is reported as 5.

For `Nc1nc2c(ncn2[C@@H]2O[C@H](COP(=O)(O)OP(=O)(O)OP(=O)(O)O)[C@@H](O)[C@@H]2O)c(=O)[nH]1` [Ara-GTP, arabinofuranyl-guanosine triphosphate], the IC50 ([2]; standard assay, 32P-dGTP / 32P-NTP incorporation, 30 min at 30° C., read-out: concentration at which 50% inhibition of incorporation of 32P label occurred) was 0.7 µM and the “position on the telomerase RNA template of strongest chain termination” value [2] was 4.
